We go through 19 compounds from patent US20190100517A1, “COMPOUNDS” (GlaxoSmithKline Intellectual Property Development Limited, priority 2015, published 2019).

This assay has as its target human KMO (Homo sapiens, UniProt O15229). Kind of assay: KMO MS Rapidfire assay (RapidFire high-throughput mass spectrometry, Method 1 or Method 2).

What is called IC50 is the concentration that gives 50% inhibition.

Values joined by “and” are separate entries in the source; they are usually repeats but may differ in a detail not shown here. Equal entries are not always repeated.

Chain of human KMO (O15229 whole entry): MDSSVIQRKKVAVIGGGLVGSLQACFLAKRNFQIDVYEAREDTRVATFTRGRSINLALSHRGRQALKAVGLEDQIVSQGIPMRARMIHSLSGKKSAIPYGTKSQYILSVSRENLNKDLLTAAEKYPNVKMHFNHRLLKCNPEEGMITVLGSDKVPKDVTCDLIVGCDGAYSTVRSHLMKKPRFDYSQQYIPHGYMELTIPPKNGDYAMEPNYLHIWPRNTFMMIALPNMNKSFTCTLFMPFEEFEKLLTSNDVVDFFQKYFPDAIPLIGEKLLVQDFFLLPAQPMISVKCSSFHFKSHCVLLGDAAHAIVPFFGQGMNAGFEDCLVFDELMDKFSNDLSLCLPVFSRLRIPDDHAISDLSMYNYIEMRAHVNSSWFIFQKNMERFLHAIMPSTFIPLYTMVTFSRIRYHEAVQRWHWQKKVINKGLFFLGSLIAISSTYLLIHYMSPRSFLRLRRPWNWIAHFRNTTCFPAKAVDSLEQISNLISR

Compound `CCC(Oc1cc2sc(=O)n(CCC(=O)O)c2cc1Cl)c1ncc(C)cn1` (single isomer, unassigned) [Example 5, 3-{5-chloro-6-[1-(5-methylpyrimidin-2-yl)propoxy]-2-oxo-2,3-dihydro-1,3-benzothiazol-3-yl}propanoic acid] gave an IC50 of at most 10 nM. As to `CCC(Oc1cc2sc(=O)n(CCC(=O)O)c2cc1Cl)c1ccc(C)cn1` (single isomer, unassigned) [Example 8, 3-{5-chloro-6-[1-(5-methylpyridin-2-yl)propoxy]-2-oxo-2,3-dihydro-1,3-benzothiazol-3-yl}propanoic acid], the IC50 was at most 10 nM. Then `CC[C@@H](Oc1cc2sc(=O)n(CCC(=O)O)c2cc1Cl)c1ccc(Cl)cn1` (single isomer, unassigned) [Example 9, 3-{5-chloro-6-[1-(5-chloropyridin-2-yl)propoxy]-2-oxo-2,3-dihydro-1,3-benzothhiazol-3-yl}propanoic acid], with at most 10 nM; and `CCC(Oc1cc2sc(=O)n(CCC(=O)O)c2cc1Cl)c1ncc(Cl)cn1` (single isomer, unassigned) [Example 11, 3-{5-chloro-6-[1-(5-chloropyrimidin-2-yl)propoxy]-2-oxo-2,3-dihydro-1,3-benzothiazol-3-yl}propanoic acid], with at most 10 nM. Then `CCC(Oc1cc2sc(=O)n(CCC(=O)O)c2cc1Cl)c1cccnn1` (single isomer, unassigned) [Example 14, 3-{5-chloro-2-oxo-6-[1-(pyridazin-3-yl)propoxy]-2,3-dihydro-1,3-benzothiazol-3-yl}propanoic acid], with at most 10 nM; and `Cc1ccc(C(C)Oc2cc3sc(=O)n(CCC(=O)O)c3cc2Cl)nn1` (single isomer, unassigned) [Example 16, 3-{5-chloro-6-[1-(6-methylpyridazin-3-yl)ethoxy]-2-oxo-2,3-dihydro-1,3-benzothiazol-3-yl}propanoic acid], with at most 10 nM. Then `Cc1cnc(C(C)Oc2cc3sc(=O)n(CCC(=O)O)c3cc2Cl)nc1` (single isomer, unassigned) [Example 18, 3-{5-chloro-6-[1-(5-methylpyrimidin-2-yl)ethoxy]-2-oxo-2,3-dihydro-1,3-benzothiazol-3-yl}propanoic acid], with at most 10 nM; and `CCC(Oc1cc2sc(=O)n(CCC(=O)O)c2cc1Cl)c1ccccn1` (single isomer, unassigned) [Example 19, 3-{5-chloro-2-oxo-6-[1-(pyridin-2-yl)propoxy]-2,3-dihydro-1,3-benzothiazol-3-yl}propanoic acid], with at most 10 nM; and `CC(Oc1cc2sc(=O)n(CCC(=O)O)c2cc1Cl)c1ncc(Cl)cn1` (single isomer, unassigned) [Example 24, 3-{5-chloro-6-[1-(5-chloropyrimidin-2-yl)ethoxy]-2-oxo-2,3-dihydro-1,3-benzothiazol-3-yl}propanoic acid], with at most 10 nM. As to `CCc1ccc(C(C)Oc2cc3sc(=O)n(CCC(=O)O)c3cc2Cl)nc1` (single isomer, unassigned) [Example 25, 3-{5-chloro-6-[1-(5-ethylpyridin-2-yl)ethoxy]-2-oxo-2,3-dihydro-1,3-benzothiazol-3-yl}propanoic acid], the IC50 was at most 10 nM. `CCC(Oc1cc2sc(=O)n(CCC(=O)O)c2cc1Cl)c1ncccn1` (single isomer, unassigned) [Example 29, 3-{5-chloro-2-oxo-6-[1-(pyrimidin-2-yl)propoxy]-2,3-dihydro-1,3-benzothiazol-3-yl}propanoic acid]: the IC50 is at most 10 nM. In turn, `CCC(Oc1cc2sc(=O)n(CCC(=O)O)c2cc1Cl)c1ccc(C)nn1` (single isomer, unassigned) [Example 32, 3-{5-chloro-6-[1-(6-methylpyridazin-3-yl)propoxy]-2-oxo-2,3-dihydro-1,3-benzothiazol-3-yl}propanoic acid] had an IC50 of at most 10 nM. Then `C[C@@H](Oc1cc2sc(=O)n(CCC(=O)O)c2cc1Cl)c1ccc(Cl)cn1` [Example 1, 3-(5-chloro-6-[(R)-1-(5-chloropyridin-2-yl)ethoxy]-2-oxobenzo[d]thiazol-3(2H)-yl)propanoic acid], with ≤ 10 nM and 1.26 nM. The compound `Cc1cnc(COc2cc3sc(=O)n(CCC(=O)O)c3cc2Cl)nc1` [Example 4, 3-{5-chloro-6-[(5-methylpyrimidin-2-yl)methoxy]-2-oxo-2,3-dihydro-1,3-benzothiazol-3-yl}propanoic acid] returned an IC50 of at most 10 nM. Then `O=C(O)CCn1c(=O)sc2cc(OCc3ccc(Cl)cn3)c(Cl)cc21` [Example 21, 3-{5-chloro-6-[(5-chloropyridin-2-yl)methoxy]-2-oxo-2,3-dihydro-1,3-benzothiazol-3-yl}propanoic acid], with at most 10 nM; and `Cc1ccc(COc2cc3sc(=O)n(CCC(=O)O)c3cc2Cl)nn1` [Example 22, 3-{5-chloro-6-[(6-methylpyridazin-3-yl)methoxy]-2-oxo-2,3-dihydro-1,3-benzothiazol-3-yl}propanoic acid], with at most 10 nM; and `O=C(O)CCn1c(=O)sc2cc(OCc3ncc(Cl)cn3)c(Cl)cc21` [Example 27, 3-{5-chloro-6-[(5-chloropyrimidin-2-yl)methoxy]-2-oxo-2,3-dihydro-1,3-benzothiazol-3-yl}propanoic acid], with at most 10 nM. Compound `Cc1ccc(COc2cc3sc(=O)n(CCC(=O)O)c3cc2Cl)nc1` [Example 30, 3-{5-chloro-6-[(5-methylpyridin-2-yl)methoxy]-2-oxo-2,3-dihydro-1,3-benzothiazol-3-yl}propanoic acid] had an IC50 of at most 10 nM. `Cc1ccc([C@@H](C)Oc2cc3sc(=O)n(CCC(=O)O)c3cc2Cl)nc1` [Example 33, 3-{5-chloro-6-[(1R)-1-(5-methylpyridin-2-yl)ethoxy]-2-oxo-2,3-dihydro-1,3-benzothiazol-3-yl}propanoic acid] had an IC50 of at most 10 nM.
